The numbers were not newly measured in patent publication US20120258171A1, “COMPOSITION COMPRISING FESOTERODINE AND FIBER” (ratiopharm GmbH, priority 2009, published 2012), which cites them from elsewhere.

One data set relates to overactive bladder. Conditions: both Phase III studies, versus placebo.
The conditions of data set [1]: general statement on the active agent.

As to `CC(C)C(=O)Oc1ccc(CO)cc1[C@H](CCN(C(C)C)C(C)C)c1ccccc1` [Fesoterodine, 2-[(1R)-3-(di-isopropylamine)-1-phenylpropyl]-4-(hydroxymethyl)phenyl-isobutyrate], in the data set on overactive bladder, the “improvement of clinically relevant end points (urge incontinence events/24 h, frequency of micturition, mean micturition volume)” value is given as “statistically significant improvements over a placebo”. Besides, the stability against hydrolysis entry in data set [1] is “not particularly stable against hydrolysis”.
